Test results taken from patent US7713949B2, “Compositions and methods for enhancing paracellular permeability across epithelial and endothelial barriers” (The University of North Carolina at Chapel Hill, priority 2000, dated 2010).

System: PLC
Assay: not given
Conditions: Perrella et al. 1994; cited from earlier work

SMILES	PLC inhibition, previously reported
O=c1oc2cc(O)ccc2cc1[N+](=O)[O-] [7-hydroxy-3-nitrocoumarin]	previously reported not to inhibit PLC

System: not given
Assay: not given
Conditions: in animals; cited from earlier work

SMILES	Oral bioavailability
CO[C@@]1(NC(=O)Cc2cccs2)C(=O)N2C(C(=O)O)=C(COC(N)=O)CS[C@@H]21 [cefoxitin]	less than five percent

System: MDCK cell monolayers
Assay: Effect on [14C]-mannitol flux across MDCK cell monolayers
Type: cell-based, canine
Conditions: MDCK cells, apical, flux measured between 30 and 60 minutes of treatment, mean ± SD
Protocol: (§1) For transport studies, MDCK cells, derived from normal proximal epithelial kidney cells of a male cocker spaniel, which is model for transport experiments (Cho, M. J., et al. (1989) Pharm. Res. 6:71-77), were grown on TRANSWELL™ multi-well plates. Each well was seeded with 200,000 cells. The cells were then grown in cell media (MEM with 1% antibiotic, supplemented with 10% fetal bovine serum (FBS) and 1% NEAA), and were maintained at 37° C. and 5% CO2. Confluent cells were grown for four days where they differentiated into epithelial cell monolayers as evidenced by the establishment of a stable TEER.
Mannitol, a hydrophilic compound, cannot readily cross the epithelial membrane, and must transverse the epithelium via the paracellular pathway. Therefore, the flux of mannitol through the epithelium is a reflection of the permeability of the paracellular pathway. Detection of mannitol is accomplished with [^3H] or [^14C] radiolabels.
The integrity of the tight junctions of cell monolayers was monitored with the measurement of TEER prior to the experiment. Transport experiments were initiated by replacing the apical media with 0.5 mL of transport buffer containing compound or vehicle, and [^14C]-mannitol. Concentration of [^14C]-mannitol was 25 μM (55 mCi/mmol). Transport rates were monitored by the measurement of the amount of [^14C]-mannitol accumulated in the basolateral side (1.5 mL) during two 30-minute intervals. The amount of radiolabeled [^14C]-mannitol transported was measured by liquid scintillation counting in a Packard Tri Carb 4000 Series spectrophotometer available from Packard Instrument Company of Meriden, Conn. All transport experiments were carried out under sink conditions (transport experiments were designed such that less than 10% of the total amount of [^14C]-mannitol was present on the basolateral side at any given time). The effect of alkylphosphocholines on the transport of [^14C]-mannitol was normalized to the transport of [^14C]-mannitol in the vehicle-treated cells and was reported as the mean±SD of three experiments performed in triplicate. The EC10x was determined by the concentration of compound that causes a 10-fold increase in mannitol flux with respect to the vehicle treated control.

SMILES	EC10x (concentration that increases mannitol flux by ten fold) [µM]
CCCCCCCCCCCCOP(=O)([O-])OCC[N+](C)(C)C [C12, Dodecylphosphocholine]	900 ± 100
CCCCCCCCCCCCCCCCCCCCOP(=O)([O-])OCC[N+](C)(C)C [C20]	73 ± 1
CCCCCCCCCCCCCCOP(=O)([O-])OCC[N+](C)(C)C [C14]	91 ± 11
COc1ccc2c(c1)CCC1C2CCC2(C)C(NCCCCCCN3C(=O)C=CC3=O)CCC12 (centres unmarked) [U-73,122, reference compound]	6 ± 2
CCCCCCCCCCCCCCCCOP(=O)([O-])OCC[N+](C)(C)C [C16, Hexadecylphosphocholine]	30 ± 8
CCCCCCCCCCCCCCCCCCOP(=O)([O-])OCC[N+](C)(C)C [C18]	66 ± 11
O=c1oc2ccccc2cc1[N+](=O)[O-] [3-nitrocoumarin, reference compound]	34 ± 5

Same assay, conditions: interval between 30 and 60 minutes of treatment

SMILES	Effect on mannitol flux
COc1ccc2c(c1)CCC1C2CCC2(C)C(NCCCCCCN3C(=O)C=CC3=O)CCC12 (centres unmarked) [U-73,122, reference compound]	increased mannitol flux

System: PLC-γ
Assay: EGF-stimulated PLC activity ([3H]-inositol phosphate accumulation) in MDCK cells
Type: cell-based, canine
Conditions: 20 ng/ml EGF
Protocol: (§2) Measurement of activity of PLC in MDCK cells was determined by an adaptation of a previously published method (Schachter, J. B., et al. (1997) Neuropharm. 36:1181-1187). MDCK cells were seeded at 400,000 cells/well in a 12-well plate and subsequently cultured for four days. MDCK cell monolayers were then labeled with [^3H]-myo-inositol (1.6 μCi/well in 0.4 ml of inositol-free media) for 24 hours at 37° C. Assays were initiated on labeled cells that were removed from the incubator by immediately supplementing the cells with 100 μl of 250 mM HEPES (pH 7.3), containing 100 mM LiCl with or without compound. Subsequently, the cells were incubated for 30 minutes at 37° C. Immediately after the termination of this incubation, ATP (final concentration: 100 μM) or EGF (20 ng/ml) was added.
(§3) The cells were then incubated at 37° C. for 15 minutes to allow accumulation of [^3H]-inositol phosphates. Incubations were terminated by aspiration of the media and the addition of 1 ml of boiling 10 mM EDTA (pH 8.0). The supernatant was applied to AG1 X8 formate columns for chromatographic isolation of [^3H]-inositol phosphates (Berridge, M. J., et al. (1983) Biochem. J. 212:473-482). The amount of [^3H]-inositol phosphates was measured by liquid scintillation counting in a Packard Tri Carb 4000 Series spectrophotometer. Data from each experiment were normalized to the response observed with 100 μM ATP or 20 ng/ml EGF and were reported as the mean±SD of three experiments performed in triplicate. The IC50 (PLC) was determined by the concentration of compound that causes a 50% decrease in ATP- or EGF-stimulated accumulation of [^3H]-inositol phosphates.

SMILES	Effect on EGF-stimulated PLC-γ activity
COc1ccc2c(c1)CCC1C2CCC2(C)C(NCCCCCCN3C(=O)C=CC3=O)CCC12 (centres unmarked) [U-73,122, reference compound]	had no effect on EGF-stimulated PLC-γ activity
CCCCCCCCCCCCCCCCOP(=O)([O-])OCC[N+](C)(C)C [C16, Hexadecylphosphocholine]	had no effect on EGF-stimulated PLC-γ activity
O=c1oc2ccccc2cc1[N+](=O)[O-] [3-nitrocoumarin, reference compound]	inhibited EGF-stimulated PLC-γ activity

System: PLC-β
Assay: ATP-stimulated PLC activity ([3H]-inositol phosphate accumulation) in MDCK cells
Type: cell-based, canine
Conditions: 100 μM ATP, MDCK cells
Protocol: as §2, §3
To determine the ability alkylphosphocholines to inhibit PLC activity, the ability of these compounds to inhibit the ATP-mediated increases in the levels of inositol phosphates was determined. The separation between the counts from basal and ATP-stimulated levels of [^3H]-inositol-phosphates from MDCK cell monolayers was, however, marginal (approximately 1.5-fold) for a reliable determination of the ability of alkylphosphocholines to inhibit PLC activity. To increase this separation, MDCK cells that were transfected with a plasmid that encoded the P2Y2 receptor were employed. The P2Y2 receptor is G-protein coupled receptor that activates PLC (Pawelczyk, T., and Lowenstein, J. M. (1993) Biochem. Pharm. 45:493-497). The separation between the counts from basal and ATP-stimulated levels of [^3H]-inositol-phosphates from MDCK monolayers that express P2Y2 receptors increased to approximately a 3-fold difference (counts from basal and ATP-stimulated levels of [^3H]-inositol-phosphates ranged from 200 to 400 and 700 to 1200 cpm, respectively).

SMILES	Effect on ATP-stimulated PLC (PLC-β) activity
COc1ccc2c(c1)CC[C@@H]1[C@@H]2CC[C@]2(C)[C@@H](NCCCCCCN3C(=O)CCC3=O)CC[C@@H]12 [U-73,343, reference compound]	did not decrease TEER or ATP-stimulated PLC activity
COc1ccc2c(c1)CCC1C2CCC2(C)C(NCCCCCCN3C(=O)C=CC3=O)CCC12 (centres unmarked) [U-73,122, reference compound]	inhibited ATP-stimulated PLC-β activity
CCCCCCCCCCCCCCCCOP(=O)([O-])OCC[N+](C)(C)C [C16, Hexadecylphosphocholine]	inhibited ATP-stimulated PLC-β activity
O=c1oc2ccccc2cc1[N+](=O)[O-] [3-nitrocoumarin, reference compound]	no inhibitory activity toward PLC-β

Same assay, conditions: ATP-stimulated inositol phosphate production

SMILES	Full extent of PLC inhibition [%]
CCCCCCCCCCCCOP(=O)([O-])OCC[N+](C)(C)C [C12, Dodecylphosphocholine]	50

Same assay, conditions: MDCK cells, 30 minutes with compound, then 15 minutes stimulation, mean ± SD; read-out: IC50(PLC) (concentration causing fifty percent decrease in ATP- or EGF-stimulated accumulation of [3H]-inositol phosphates)

SMILES	IC50 [µM]
CCCCCCCCCCCCOP(=O)([O-])OCC[N+](C)(C)C [C12, Dodecylphosphocholine]	275 ± 135
CCCCCCCCCCCCCCCCCCCCOP(=O)([O-])OCC[N+](C)(C)C [C20]	48 ± 5
CCCCCCCCCCCCCCOP(=O)([O-])OCC[N+](C)(C)C [C14]	73 ± 9
COc1ccc2c(c1)CCC1C2CCC2(C)C(NCCCCCCN3C(=O)C=CC3=O)CCC12 (centres unmarked) [U-73,122, reference compound]	7 ± 3
CCCCCCCCCCCCCCCCOP(=O)([O-])OCC[N+](C)(C)C [C16, Hexadecylphosphocholine]	36 ± 18
CCCCCCCCCCCCCCCCCCOP(=O)([O-])OCC[N+](C)(C)C [C18]	30 ± 2
O=c1oc2ccccc2cc1[N+](=O)[O-] [3-nitrocoumarin, reference compound]	21 ± 5

System: MDCK cell monolayers
Assay: Effect on transepithelial electrical resistance (TEER) across MDCK cell monolayers
Type: cell-based, canine
Conditions: 30-minute treatment
Protocol: as §1
TEER (expressed as Ω·cm^2) serves as a measure of functional integrity of tight junctions. TEER was measured by an EVOM Epithelial Tissue Voltohmeter (World Precision Instruments, Sarasota, Fla.) and an Endohm-12 electrode (World Precision Instruments, Sarasota, Fla.). TEER values of MDCK cells that formed a functional monolayer ranged between 150-250 Ω·cm^2.
Experiments were initiated by adding 0.5 mL of HBSS supplemented with 10 mM HEPES, pH 7.4 (transport buffer) containing compound or vehicle to the apical side of the TRANSWELL™ multi-well plate. […] Data from each experiment were normalized to the response from the vehicle and were reported as the mean±SD of three experiments performed in triplicate.
The effect of akylphosphocholines on TEER was evaluated at several concentrations, and the concentration that caused a 50% decrease in TEER with respect to the untreated control was defined as EC50 (Liu, D. Z., et al. (1999) J. Pharm. Sci. 88:1161-1168; Liu, D. Z., et al. (1999) J. Pharm. Sci. 88:1169-1174).

SMILES	Effect on TEER
COc1ccc2c(c1)CC[C@@H]1[C@@H]2CC[C@]2(C)[C@@H](NCCCCCCN3C(=O)CCC3=O)CC[C@@H]12 [U-73,343, reference compound]	did not decrease TEER
COc1ccc2c(c1)CCC1C2CCC2(C)C(NCCCCCCN3C(=O)C=CC3=O)CCC12 (centres unmarked) [U-73,122, reference compound]	potently decreased TEER

Same assay, conditions: Canis lupus familiaris, 0.5 h; MDCK cells, apical, 30-minute incubation at 37° C., mean ± SD; read-out: EC50 (concentration required to decrease TEER by fifty percent)

SMILES	EC50 [µM]
CCCCCCCCCCCCOP(=O)([O-])OCC[N+](C)(C)C [C12, Dodecylphosphocholine]	733 ± 32
CCCCCCCCCCCCCCCCCCCCOP(=O)([O-])OCC[N+](C)(C)C [C20]	71 ± 8
CCCCCCCCCCCCCCOP(=O)([O-])OCC[N+](C)(C)C [C14]	44 ± 11
COc1ccc2c(c1)CCC1C2CCC2(C)C(NCCCCCCN3C(=O)C=CC3=O)CCC12 (centres unmarked) [U-73,122, reference compound]	6 ± 2
CCCCCCCCCCCCCCCCOP(=O)([O-])OCC[N+](C)(C)C [C16, Hexadecylphosphocholine]	29 ± 5
CCCCCCCCCCCCCCCCCCOP(=O)([O-])OCC[N+](C)(C)C [C18]	59 ± 8
O=c1oc2ccccc2cc1[N+](=O)[O-] [3-nitrocoumarin, reference compound]	24 ± 1

Same assay, conditions: Canis lupus familiaris, MDCK, 2 h; 30 μM, over a two-hour period; read-out: TEER, % of control values

SMILES	activity at 30 µM [%]
CCCCCCCCCCCCCCCCOP(=O)([O-])OCC[N+](C)(C)C [C16, Hexadecylphosphocholine]	< 10
